Like-named read-outs stand apart in the source and are kept apart here.

One test concerns the target hNav1.2 (Homo sapiens (Human), UniProt Q99250). Nature of the test: Automated patch clamp (IonWorks Quattro) block of hNav1.2 channels in CHO cells. It is filed as cell-based. From the text:
(§1) FIG. 1 depicts the voltage sequence used to measure inhibitory activity of compounds as described in Example 3. An automated patch clamp screening assay was used to measure the inhibitory effect (potency) of compounds in three conformational states of the sodium channel: (1) the tonic state (TP1); (2) the frequency-dependent (10 Hz) state (TP11) and (3) the inactivated state (TP12).
(§2) Test Protocol for Determining the Potency of Compounds on Nav1.2 and Nav1.6 Subtypes of Voltage-Gated Sodium Ion Channels Expressed in Mammalian Cells
(§3) Cell culture procedures: Chinese hamster ovary (CHO) cells were stably transfected with the cDNA sequence of either the human SCN2A or SCN8A genes to create hNav1.2 or hNav1.6 cells respectively. The cell lines were cultured in Ham's F-12 medium supplemented with 10% fetal bovine serum and antibiotics in a tissue incubator at 37° C. under a humidified air/CO2 mixture (95/5 v/v). On the day of the experiment, cells were washed twice with Hank's balanced salt solution, treated with trypsin, and resuspended in fresh culture media at a density of 4−6×10^6 cells in 20 ml. Immediately before placing in the IonWorks Quattro instrument, cells were washed in Hank's balanced salt solution to remove culture medium and re-suspended in 3 ml of Hank's balanced salt solution.
(§4) Automated patch clamp recordings of cells using the IonWorks Quattro Instrument: The assay used a 384 microwell plate, which enabled 20 compounds to be studied at four different concentrations in quadruplicate as well as allowing a vehicle control group and a positive control group using mexiletine at 8 different concentrations. Cells were added to the wells of the Population Patch Clamp planar electrode using a 48-channel pipettor in a volume of 6 μL, per well. After 5 minutes incubation at ambient temperature with compounds or vehicle, membrane currents were recorded using the patch clamp amplifier. The pulse pattern was repeated twice, before and after compound addition and peak current amplitudes were measured at three test pulses, TP1, TP11 and TP12 to measure Tonic Block, 10 Hz Frequency-dependent Block and Inactivation State Block, respectively.
(§5) Data analysis: Data acquisition and analyses were carried out using the IonWorks Quattro system operation software which uses an algorithm to correct data for leak currents. Concentration-response curves were fitted by non-linear least squares regression allowing calculation of an IC50 value (μM), being the concentration of the compound producing half-maximal inhibition.
Background: The patch-clamp technique gives a direct electrical read-out from membranes.

Another test concerns the target hNav1.6 (Homo sapiens (Human), UniProt Q9UQD0). Nature of the test: Automated patch clamp (IonWorks Quattro) block of hNav1.6 channels in CHO cells. It is filed as cell-based.
From the text: as §1, §2, §3, §4, §5

Where [1] appears, read: 10 Hz frequency-dependent block (TP11), read-out: IC50 Nav1.2 10 Hz block.
The mark [2] stands for this setting: Inactivated state block (TP12), read-out: IC50 Nav1.2 Inactivated state block.
The mark [3] stands for this setting: Tonic block (TP1), read-out: IC50 Nav1.2 Tonic block.
[4] abbreviates: 10 Hz frequency-dependent block (TP11), read-out: IC50 Nav1.6 10 Hz block.
Where [5] appears, read: Inactivated state block (TP12), read-out: IC50 Nav1.6 Inactivated state block.
[6] abbreviates: Tonic block (TP1), read-out: IC50 Nav1.6 Tonic block.

Chain of hNav1.2 (Q99250 whole entry): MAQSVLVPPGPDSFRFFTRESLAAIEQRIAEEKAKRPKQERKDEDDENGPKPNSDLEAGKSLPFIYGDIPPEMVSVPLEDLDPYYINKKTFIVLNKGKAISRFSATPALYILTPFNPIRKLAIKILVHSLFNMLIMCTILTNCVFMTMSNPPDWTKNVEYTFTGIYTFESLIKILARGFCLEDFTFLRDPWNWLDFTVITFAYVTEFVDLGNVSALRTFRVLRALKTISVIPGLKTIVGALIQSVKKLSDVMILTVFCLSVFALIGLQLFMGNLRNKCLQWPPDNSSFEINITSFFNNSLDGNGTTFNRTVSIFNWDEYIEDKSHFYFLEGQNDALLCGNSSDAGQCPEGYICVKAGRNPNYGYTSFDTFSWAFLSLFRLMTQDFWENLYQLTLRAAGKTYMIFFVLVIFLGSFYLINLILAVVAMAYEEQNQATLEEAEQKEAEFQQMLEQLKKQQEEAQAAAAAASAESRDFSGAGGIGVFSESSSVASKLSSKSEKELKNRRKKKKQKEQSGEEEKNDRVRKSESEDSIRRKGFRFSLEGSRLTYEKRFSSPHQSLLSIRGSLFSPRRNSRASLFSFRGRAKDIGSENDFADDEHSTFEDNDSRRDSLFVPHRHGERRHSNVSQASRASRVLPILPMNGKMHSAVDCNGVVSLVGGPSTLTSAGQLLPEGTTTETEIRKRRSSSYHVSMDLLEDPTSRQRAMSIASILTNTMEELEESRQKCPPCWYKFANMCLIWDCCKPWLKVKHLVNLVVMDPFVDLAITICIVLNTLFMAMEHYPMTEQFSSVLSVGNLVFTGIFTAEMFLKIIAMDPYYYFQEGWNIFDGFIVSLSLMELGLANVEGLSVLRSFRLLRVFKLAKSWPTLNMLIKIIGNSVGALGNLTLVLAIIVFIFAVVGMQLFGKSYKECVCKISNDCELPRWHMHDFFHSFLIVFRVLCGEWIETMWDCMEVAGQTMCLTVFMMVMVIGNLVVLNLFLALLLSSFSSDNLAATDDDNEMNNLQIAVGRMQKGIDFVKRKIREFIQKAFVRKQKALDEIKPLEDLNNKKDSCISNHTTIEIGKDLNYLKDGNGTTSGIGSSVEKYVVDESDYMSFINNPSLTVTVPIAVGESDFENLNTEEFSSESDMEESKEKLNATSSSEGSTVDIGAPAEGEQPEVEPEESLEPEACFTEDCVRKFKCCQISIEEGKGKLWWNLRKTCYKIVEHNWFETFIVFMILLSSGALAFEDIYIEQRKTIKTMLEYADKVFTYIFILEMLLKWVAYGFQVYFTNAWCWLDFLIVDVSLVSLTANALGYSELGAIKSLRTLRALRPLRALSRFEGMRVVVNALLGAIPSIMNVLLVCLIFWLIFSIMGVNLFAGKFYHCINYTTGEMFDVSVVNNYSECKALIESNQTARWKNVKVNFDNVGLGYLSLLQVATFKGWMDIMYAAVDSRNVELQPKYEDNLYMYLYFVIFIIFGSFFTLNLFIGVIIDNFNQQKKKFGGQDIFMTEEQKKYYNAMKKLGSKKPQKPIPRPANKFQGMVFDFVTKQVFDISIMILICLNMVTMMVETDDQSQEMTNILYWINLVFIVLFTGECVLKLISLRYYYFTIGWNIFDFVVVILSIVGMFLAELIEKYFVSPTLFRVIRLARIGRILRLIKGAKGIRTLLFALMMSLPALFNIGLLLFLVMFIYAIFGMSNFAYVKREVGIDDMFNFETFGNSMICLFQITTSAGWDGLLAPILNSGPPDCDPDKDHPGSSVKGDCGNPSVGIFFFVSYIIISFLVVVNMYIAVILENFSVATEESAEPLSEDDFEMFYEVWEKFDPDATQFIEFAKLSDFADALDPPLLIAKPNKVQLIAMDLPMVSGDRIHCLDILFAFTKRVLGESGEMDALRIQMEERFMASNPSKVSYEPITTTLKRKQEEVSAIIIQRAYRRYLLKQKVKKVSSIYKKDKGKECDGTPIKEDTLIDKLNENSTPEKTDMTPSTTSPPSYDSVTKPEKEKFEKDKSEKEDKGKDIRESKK
Chain of hNav1.6 (Q9UQD0 whole entry): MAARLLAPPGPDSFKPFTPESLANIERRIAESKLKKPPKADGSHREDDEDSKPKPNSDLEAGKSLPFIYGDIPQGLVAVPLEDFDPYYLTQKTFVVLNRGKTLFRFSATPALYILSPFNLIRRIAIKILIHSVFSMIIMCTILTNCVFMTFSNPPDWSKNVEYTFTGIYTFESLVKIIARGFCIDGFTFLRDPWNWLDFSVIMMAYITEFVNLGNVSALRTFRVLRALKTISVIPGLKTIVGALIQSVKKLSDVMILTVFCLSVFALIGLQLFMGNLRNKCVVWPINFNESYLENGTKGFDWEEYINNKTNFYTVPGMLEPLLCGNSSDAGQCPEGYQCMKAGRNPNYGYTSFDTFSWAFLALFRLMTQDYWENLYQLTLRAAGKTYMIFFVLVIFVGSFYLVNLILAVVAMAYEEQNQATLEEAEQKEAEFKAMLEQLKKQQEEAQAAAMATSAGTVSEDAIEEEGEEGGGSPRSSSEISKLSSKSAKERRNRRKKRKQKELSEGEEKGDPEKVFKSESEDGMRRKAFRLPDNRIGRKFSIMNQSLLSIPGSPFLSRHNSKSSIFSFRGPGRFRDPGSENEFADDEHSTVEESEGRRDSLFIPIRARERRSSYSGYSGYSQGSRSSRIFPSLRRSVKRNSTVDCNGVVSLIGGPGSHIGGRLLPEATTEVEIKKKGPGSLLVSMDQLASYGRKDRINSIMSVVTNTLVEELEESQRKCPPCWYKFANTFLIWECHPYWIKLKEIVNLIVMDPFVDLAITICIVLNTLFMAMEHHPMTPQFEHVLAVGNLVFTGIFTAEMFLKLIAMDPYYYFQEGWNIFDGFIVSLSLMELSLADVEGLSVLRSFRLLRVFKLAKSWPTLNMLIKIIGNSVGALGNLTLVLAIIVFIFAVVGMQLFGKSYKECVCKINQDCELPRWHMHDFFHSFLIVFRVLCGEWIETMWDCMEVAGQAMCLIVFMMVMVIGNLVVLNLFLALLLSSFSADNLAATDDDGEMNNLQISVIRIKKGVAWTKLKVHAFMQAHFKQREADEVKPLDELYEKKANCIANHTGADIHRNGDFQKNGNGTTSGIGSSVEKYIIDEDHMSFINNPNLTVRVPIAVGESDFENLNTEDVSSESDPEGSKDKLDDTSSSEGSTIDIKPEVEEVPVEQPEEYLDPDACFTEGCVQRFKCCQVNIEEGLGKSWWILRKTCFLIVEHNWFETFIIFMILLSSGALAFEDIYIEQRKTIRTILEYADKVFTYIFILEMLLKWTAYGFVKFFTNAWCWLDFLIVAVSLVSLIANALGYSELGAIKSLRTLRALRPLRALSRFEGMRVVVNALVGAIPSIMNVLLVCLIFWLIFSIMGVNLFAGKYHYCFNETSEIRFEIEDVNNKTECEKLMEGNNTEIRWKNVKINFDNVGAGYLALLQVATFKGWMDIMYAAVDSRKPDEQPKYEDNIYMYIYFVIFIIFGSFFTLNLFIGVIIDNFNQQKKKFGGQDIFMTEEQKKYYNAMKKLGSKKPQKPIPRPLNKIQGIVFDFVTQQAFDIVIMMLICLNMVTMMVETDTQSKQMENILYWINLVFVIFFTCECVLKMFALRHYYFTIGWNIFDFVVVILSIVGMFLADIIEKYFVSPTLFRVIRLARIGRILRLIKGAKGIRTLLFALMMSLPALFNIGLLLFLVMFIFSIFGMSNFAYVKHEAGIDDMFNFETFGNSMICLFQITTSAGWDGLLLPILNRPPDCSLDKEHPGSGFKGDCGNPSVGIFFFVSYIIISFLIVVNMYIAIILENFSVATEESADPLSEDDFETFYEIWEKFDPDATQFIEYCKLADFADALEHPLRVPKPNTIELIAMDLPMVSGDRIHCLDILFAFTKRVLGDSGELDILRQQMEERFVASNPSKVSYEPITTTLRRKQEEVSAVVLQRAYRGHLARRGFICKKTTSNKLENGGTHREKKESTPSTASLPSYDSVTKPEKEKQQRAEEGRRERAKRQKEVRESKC

As a reminder, the IC50 is the point on the concentration scale where inhibition reaches its midpoint. Take `Cc1cccc(C)c1OCCCNCc1ccc(F)cc1` [Compound 521, 3-(2,6-Dimethylphenoxy)-N-(4-fluorobenzyl)propan-1-amine]: the concentration for half-maximal inhibition (IC50) on hNav1.2 (setting [1]) is 8.4 µM; at hNav1.2 (setting [2]), 2.8 µM; at hNav1.2 (setting [3]), ~10.2 µM; at hNav1.6 (setting [4]) it was 2.2 µM; at hNav1.6 (setting [5]) it was 1.4 µM; at hNav1.6 (setting [6]) it was 4.5 µM.

Turning to `Cc1cccc(C)c1OCCCNCc1ccc(S(N)(=O)=O)cc1` [Compound 532, 4-((3-(2,6-Dimethylphenoxy)propylamino)methyl)benzenesulfonamide], the IC50 at hNav1.2 (setting [1]) is > 10 µM; at hNav1.2 (setting [2]), 6.1 µM; at hNav1.2 (setting [3]) it was > 10 µM; on hNav1.6 (setting [4]), > 10 µM; at hNav1.6 (setting [5]), 8.5 µM; at hNav1.6 (setting [6]), > 10 µM.

Regarding `Cc1cccc(C)c1OCCCNCc1cc(C(C)(C)C)cc(C(C)(C)C)c1` [Compound 559, N-(3,5-Di-tert-butylbenzyl)-3-(2,6-dimethylphenoxy)propan-1-amine], the IC50 on hNav1.2 (setting [1]), at hNav1.2 (setting [2]), at hNav1.2 (setting [3]), on hNav1.6 (setting [4]), at hNav1.6 (setting [5]) and at hNav1.6 (setting [6]) was > 10 µM in each case.

Consider `Cc1cccc(C)c1OCCCNCc1cccc(-c2ccccc2F)c1` [Compound 556, 3-(2,6-Dimethylphenoxy)-N-((2′-fluorobiphenyl-3-yl)methyl)propan-1-amine], for which the IC50 at hNav1.2 (setting [1]) was 4.5 µM; at hNav1.2 (setting [2]), 2.1 µM; on hNav1.2 (setting [3]), > 30 µM; on hNav1.6 (setting [4]), > 30 µM; on hNav1.6 (setting [5]), 8 µM; on hNav1.6 (setting [6]), > 30 µM.

On to `Cc1cccc(C)c1OCCCNC(c1ccccn1)c1ccccn1` [Compound 562, 3-(2,6-Dimethylphenoxy)-N-(dipyridin-2-ylmethyl)propan-1-amine], for which the IC50 on hNav1.2 (setting [1]) is 1.2 µM; on hNav1.2 (setting [2]), 0.1 µM; at hNav1.2 (setting [3]), > 30 µM; on hNav1.6 (setting [4]), 1.3 µM; on hNav1.6 (setting [5]), 0.1 µM; on hNav1.6 (setting [6]), > 30 µM.

`Cc1cccc(C)c1OCCCNCc1nn(Cc2ccccc2)c2ccccc12` [Compound 540, N-((1-Benzyl-1H-indazol-3-yl)methyl)-3-(2,6-dimethylphenoxy)propan-1-amine]: the IC50 is 2.3 µM on hNav1.2 (setting [1]); 1.2 µM at hNav1.2 (setting [2]); 23.5 µM on hNav1.2 (setting [3]); 142 µM at hNav1.6 (setting [4]); 80.5 µM at hNav1.6 (setting [5]); 287 µM on hNav1.6 (setting [6]).

As for `Cc1cccc(C)c1OCCCNCc1cccnc1` [Compound 528, 3-(2,6-Dimethylphenoxy)-N-(pyridin-3-ylmethyl)propan-1-amine], the IC50 came out at 13.1 µM on hNav1.2 (setting [1]); 4.8 µM on hNav1.2 (setting [2]); 34.4 µM on hNav1.2 (setting [3]); 12.4 µM on hNav1.6 (setting [4]); 4.7 µM on hNav1.6 (setting [5]); 31.7 µM at hNav1.6 (setting [6]).

`Cc1cccc(C)c1OCCCNC(C)c1ccccc1` (stereo not drawn) [Compound 553, 3-(2,6-Dimethylphenoxy)-N-(1-phenylethyl)propan-1-amine]: the IC50 on hNav1.2 (setting [1]) was 1.2 µM; at hNav1.2 (setting [2]), 0.2 µM; at hNav1.2 (setting [3]), 3.6 µM; on hNav1.6 (setting [4]) it was 1 µM; at hNav1.6 (setting [5]) it was 0.3 µM; at hNav1.6 (setting [6]), 1.6 µM.

Consider `Cc1n[nH]c(C)c1OCCCNC(c1ccccn1)c1ccccn1` [Compound 642, 3-(3,5-Dimethyl-1H-pyrazol-4-yloxy)-N-(dipyridin-2-ylmethyl)propan-1-amine], for which the IC50 at hNav1.2 (setting [1]), at hNav1.2 (setting [2]), at hNav1.2 (setting [3]), at hNav1.6 (setting [4]), at hNav1.6 (setting [5]) and at hNav1.6 (setting [6]) was > 10 µM each time.

Consider `Cc1cccc(C)c1OCCCNCc1ccccc1` [Compound 518, N-Benzyl-3-(2,6-dimethylphenoxy)propan-1-amine], for which the IC50 is 1.8 µM on hNav1.2 (setting [1]); 0.5 µM on hNav1.2 (setting [2]); 3.3 µM at hNav1.2 (setting [3]); 2.9 µM at hNav1.6 (setting [4]); 2 µM at hNav1.6 (setting [5]); 5.2 µM at hNav1.6 (setting [6]).

As to `Cc1cccc(C)c1OCCCNC(c1ccccc1)c1ccccc1` [Compound 554, N-Benzhydryl-3-(2,6-dimethylphenoxy)propan-1-amine], the IC50 is 32.2 µM on hNav1.2 (setting [1]); 1.4 µM on hNav1.2 (setting [2]); > 1000 µM at hNav1.2 (setting [3]); > 1000 µM on hNav1.6 (setting [4]); > 1000 µM at hNav1.6 (setting [5]); > 1000 µM on hNav1.6 (setting [6]).

On to `Cc1n[nH]c(C)c1OCCCNCc1cccc(-c2cncnc2)c1` [Compound 643, 3-(3,5-Dimethyl-1H-pyrazol-4-yloxy)-N-(3-(pyrimidin-5-yl)benzyl)propan-1-amine], for which the IC50 at hNav1.2 (setting [1]), on hNav1.2 (setting [2]), at hNav1.2 (setting [3]), on hNav1.6 (setting [4]), at hNav1.6 (setting [5]) and on hNav1.6 (setting [6]) was > 10 µM throughout.

As for `Cc1cccc(C)c1OCCCNCc1cccc(F)c1` [Compound 552, 3-(2,6-Dimethylphenoxy)-N-(3-fluorobenzyl)propan-1-amine], the IC50 at hNav1.2 (setting [1]) was determined as 8.1 µM; on hNav1.2 (setting [2]), 2.4 µM; at hNav1.2 (setting [3]), 9.5 µM; at hNav1.6 (setting [4]), 1.9 µM; at hNav1.6 (setting [5]), 1.2 µM; on hNav1.6 (setting [6]), 3.1 µM.

In the case of `Cc1nn(C)c(C)c1OCCCNCc1cccc(-c2cncnc2)c1` [Compound 645, N-(3-(Pyrimidin-5-yl)benzyl)-3-(1,3,5-trimethyl-1H-pyrazol-4-yloxy)propan-1-amine], the IC50 on hNav1.2 (setting [1]), on hNav1.2 (setting [2]), at hNav1.2 (setting [3]), on hNav1.6 (setting [4]), on hNav1.6 (setting [5]) and at hNav1.6 (setting [6]) was > 10 µM in each case.

As to `COc1ccccc1CNCCCOc1c(C)cccc1C` [Compound 530, 3-(2,6-Dimethylphenoxy)-N-(2-methoxybenzyl)propan-1-amine], the IC50 on hNav1.2 (setting [1]) was found to be 2.9 µM; at hNav1.2 (setting [2]), 1.1 µM; on hNav1.2 (setting [3]), 7.8 µM; at hNav1.6 (setting [4]), 1.7 µM; at hNav1.6 (setting [5]), 0.8 µM; on hNav1.6 (setting [6]) it was 2.9 µM.

Consider `Cc1cccc(C)c1OCCCNCc1cc(Cl)c(O)c(Cl)c1` [Compound 504, 2,6-Dichloro-4-((3-(2,6-dimethylphenoxy)propylamino)methyl)phenol], for which the IC50 on hNav1.2 (setting [1]) was > 10 µM; at hNav1.2 (setting [2]), 4.4 µM; at hNav1.2 (setting [3]) it was > 10 µM; at hNav1.6 (setting [4]), > 10 µM; on hNav1.6 (setting [5]), > 10 µM; at hNav1.6 (setting [6]), > 10 µM.

As for `Cc1cccc(C)c1OCCCNCc1ccc(C(F)(F)F)cc1` [Compound 526], the IC50 on hNav1.2 (setting [1]) was 9.5 µM; on hNav1.2 (setting [2]), 3.5 µM; at hNav1.2 (setting [3]), > 10 µM; on hNav1.6 (setting [4]) it was 4.7 µM; at hNav1.6 (setting [5]) it was 2.3 µM; at hNav1.6 (setting [6]) it was 6.9 µM.

As for `Cc1cccc(C)c1OCCCNCc1c2ccccc2nn1Cc1ccccc1` [Compound 555, N-((2-Benzyl-2H-indazol-3-yl)methyl)-3-(2,6-dimethylphenoxy)propan-1-amine], the IC50 at hNav1.2 (setting [1]) is > 10 µM; on hNav1.2 (setting [2]) it was 9.3 µM; at hNav1.2 (setting [3]), > 10 µM; at hNav1.6 (setting [4]), > 10 µM; at hNav1.6 (setting [5]), 3.7 µM; at hNav1.6 (setting [6]), > 10 µM.

Turning to `Cc1cccc(C)c1OCCCNCc1ccccc1F` [Compound 551, 3-(2,6-Dimethylphenoxy)-N-(2-fluorobenzyl)propan-1-amine], the IC50 at hNav1.2 (setting [1]) is 4.9 µM; on hNav1.2 (setting [2]), 2.1 µM; on hNav1.2 (setting [3]) it was ~10.1 µM; on hNav1.6 (setting [4]) it was 2 µM; on hNav1.6 (setting [5]), 1.1 µM; on hNav1.6 (setting [6]), 5.6 µM.

With `Cc1cccc(C)c1OCCCNCc1ccccn1` [Compound 523, 3-(2,6-Dimethylphenoxy)-N-(pyridin-2-ylmethyl)propan-1-amine], the IC50 is ~10 µM at hNav1.2 (setting [1]); 4.2 µM at hNav1.2 (setting [2]); > 10 µM on hNav1.2 (setting [3]); 7.6 µM on hNav1.6 (setting [4]); 2 µM on hNav1.6 (setting [5]); > 10 µM at hNav1.6 (setting [6]).

Turning to `Cc1cccc(C)c1OCCCNCc1cccc(-c2ccc(F)cc2)c1` [Compound 557, 3-(2,6-Dimethylphenoxy)-N-((4′-fluorobiphenyl-3-yl)methyl)propan-1-amine], the IC50 on hNav1.2 (setting [1]) was 9.3 µM; at hNav1.2 (setting [2]), 3.2 µM; on hNav1.2 (setting [3]), > 30 µM; at hNav1.6 (setting [4]), > 30 µM; at hNav1.6 (setting [5]), > 30 µM; at hNav1.6 (setting [6]) it was > 30 µM.

For the origin of these results see US10577308B2, “Sodium channel modulators” (The Florey Institute of Neuroscience and Mental Health, priority 2015, dated 2020).
